Results published in US6989396B2, “Tropane alkaloid multidrug resistance inhibitors from Erythroxylum pervillei and use of the same” (The Board of Trustees of the University of Illinois, priority 2001, dated 2006).
Several values for one entry are separate records, joined by “and”; a condition that tells them apart may be missing. Identical values can stand only once. Like-named read-outs stand apart in the source and are kept apart here.

Legend:
BC1, breast cancer = test: In vitro cytotoxicity, human tumor panel: BC1; format: cell-based
Protocol: (§1) Cytotoxicity assay. Compounds 1–9 were evaluated for cytotoxic activity against a panel of human cancer cell lines, including KB-V1 in the presence and absence of VLB, according to an established protocol (68).

Lu1, lung cancer = test: In vitro cytotoxicity, human tumor panel: Lu1; format: cell-based
Protocol: as §1

Col2, colon cancer = test: In vitro cytotoxicity, human tumor panel: Col2; format: cell-based
Protocol: as §1

[1] = system: KB, oral epidermoid carcinoma; test: In vitro cytotoxicity, human tumor panel: KB; format: cell-based
Protocol: as §1

KB-V1, drug resistant KB = test: In vitro cytotoxicity, human tumor panel: KB-V1 with or without vinblastine; format: cell-based; settings: for ED50 KB-V1+: drug resistant KB assessed in presence of vinblastine (1 μg/mL)
Protocol: as §1

[2] = system: LNCaP, hormone-dependent prostate cancer; test: In vitro cytotoxicity, human tumor panel: LNCaP; format: cell-based
Protocol: as §1

[3] = system: SW626, human ovarian adenocarcinoma; test: In vitro cytotoxicity, human tumor panel: SW626; format: cell-based
Protocol: as §1

KB-3 cells = test: Growth inhibitory potential (sulforhodamine B cell survival assay): KB-3; format: cell-based; settings: Homo sapiens, KB3, 72 h, read-out: IC50 KB-3
Protocol: (§2) One part of a natural product drug discovery program involves monitoring the potential of plant extracts to reverse multiple drug resistance. […] To investigate the potential of plant extracts or compounds to reverse multidrug-resistance, KB-V1 cells are treated with different concentrations of plant extracts or compounds in the presence (1 μg/ml) or absence of vinblastine.
(§3) Cytotoxic potential. The cytotoxic potential of test substances with KB-3, KB-V1 and KB-8-5 cells was determined as described previously (24). Briefly, various concentrations of test compounds (dissolved in 10 μl of 10% DMSO) were transferred to 96-well plates, and 190 μl aliquots of cell suspensions (5×10^4 cells/ml) were added to each well. The plates then were incubated for 72 hours at 37° C. (100% humidity with a 5% CO2 atmosphere in air), and 100 μl of cold 20% aqueous trichloroacetic acid were added to the growth medium in each well to fix the cells. The cultures were incubated at 4° C. for 30 minutes, washed, air-dried, stained with sulforhodamine B solution, and washed with 1% acetic acid. Finally, 200 μl of 10 mM Tris base were added to each well and the optical densities were determined at 515 nm utilizing an ELISA plate reader. In each case, a zero-day control was performed by adding an equivalent number of cells to several wells and incubating at 37° C. for 30 minutes, and processing as described above. Optical density values obtained with the zero-day control were subtracted, and cell survival, relative to control (solvent-treated) cultures, was calculated. The cytotoxic potential of the compounds with CEM and CEM/VLB100 cells was determined as described by Beck et al. (30). Cells were grown in 24-well plates at a density of 5–6×10^5 cells/ml. At 48 hours, the cell number was determined using a Coulter Counter, with a channelizer to distinguish cells from debris.

KB-V1 cells [4] = test: Reversal of MDR, cell survival assay: KB-V1 with or without vinblastine; format: cell-based, human
Protocol: as §2
as §3, with “Finally, 200 μl of 10 mM Tris base were added to each well and the optical densities were determined at 515 nm utilizing an ELISA plate reader.” left out

KB-8-5 cells [5] = test: Reversal of MDR, cell survival assay: KB-8-5 with or without colchicine; format: cell-based, human; settings: Homo sapiens
Protocol: as §3, with “Finally, 200 μl of 10 mM Tris base were added to each well and the optical densities were determined at 515 nm utilizing an ELISA plate reader.” left out

CEM/VLB100 cells = test: MDR reversal in drug-resistant human leukemia CEM/VLB100 cells; format: cell-based; settings: Homo sapiens
Protocol: as §3, with “Finally, 200 μl of 10 mM Tris base were added to each well and the optical densities were determined at 515 nm utilizing an ELISA plate reader.” left out

KB-V1 cells [6] = test: In vivo hollow fiber test: KB-V1; set-up: species or system NCr nu/nu mice
Protocol: (§4) In vivo hollow fiber test. […] Confluent monolayers of KB-3, KB-V1 or KB-8-5 cells were harvested, collected by centrifugation and resuspended in conditioned medium at a concentration of 7.5×10^5 cells/ml.
(§5) Test compounds were administrated once daily by intraperitoneal injection from day 3–6 after implantation. Body weights were measure daily.
(§6) After incubating at 37° C. for 4 hours, the culture medium was aspirated and the samples were washed twice with normal saline containing 2.5% protamine sulfate solution by overnight incubation at 4° C. […] The formazan was extracted from each sample with DMSO (250 μl/well) for 4 hours at room temperature on a rotation platform.

KB-8-5 cells [7] = test: In vivo hollow fiber test: KB-8-5; set-up: species or system NCr nu/nu mice
Protocol: as §4, §5, §6

[8] = system: SKOV3 (ovarian adenocarcinoma); test: Cytotoxicity in ovarian adenocarcinoma SKOV3 (pGp -ve); format: cell-based; settings: Homo sapiens, SK-OV-3; read-out: IC50 SKOV3 (pGp − ve)
Protocol: as §1

[9] = system: SKVLB (ovarian adenocarcinoma, multidrug resistance); test: Multidrug resistance inhibition in SKVLB (pGp +ve); format: cell-based, human; settings: Homo sapiens; no adriamycin added; read-out: IC50 BSKVLB (pGp + ve)
[10] = summation of single-agent inhibitions
[11] = vinblastine 100 μg/kg + reversing agent 0.136 mmol/kg

CN1[C@@H]2C[C@@H](OC(=O)Cc3ccccc3)C[C@H]1[C@H](O)[C@@H]2O [Compound 1, Tropane-3α,6β,7β-triol 3-phenylacetate]
IC50 (BC1, breast cancer; Homo sapiens, read-out: ED50 BCI): > 20 µg/mL | IC50 (Lu1, lung cancer; Homo sapiens, read-out: ED50 Lu1): > 20 µg/mL | IC50 (Col2, colon cancer; Homo sapiens, read-out: ED50 Col2): > 20 µg/mL | IC50 ([1]; Homo sapiens, read-out: ED50 KB): > 20 µg/mL | IC50 (KB-V1, drug resistant KB; Homo sapiens, KB-V1, drug-resistant KB assessed in the absence of vinblastine, read-out: ED50 KB-V1−): > 20 µg/mL | ED50 KB-V1+ (KB-V1, drug resistant KB): >20 µg/mL | IC50 ([2]; Homo sapiens, LNCaP, read-out: ED50 LNCaP): > 20 µg/mL | IC50 ([3]; SW626, read-out: ED50 SW626): > 20 µg/mL | melting point: 120 to 122 °C

COc1cc(C(=O)O[C@H]2C[C@H]3CC[C@@H](C2)N3C)cc(OC)c1OC [Compound 2, 1αH,5αH-Tropan-3α-yl 3,4,5-trimethoxy-benzoate]
ED50 BCI (BC1, breast cancer): >20 µg/mL | ED50 Lu1 (Lu1, lung cancer): >20 µg/mL | ED50 Col2 (Col2, colon cancer): >20 µg/mL | ED50 KB [1]: >20 µg/mL | ED50 KB-V1+ (KB-V1, drug resistant KB): >20 µg/mL | ED50 KB-V1− (KB-V1, drug resistant KB; drug-resistant KB assessed in the absence of vinblastine): >20 µg/mL | ED50 LNCaP [2]: >20 µg/mL | ED50 SW626 [3]: >20 µg/mL

COc1ccc(CCN(C)CCCC(C#N)(c2ccc(OC)c(OC)c2)C(C)C)cc1OC (stereo not drawn) [verapamil, reference compound]
IC50 (KB-3 cells): 37 µM | IC50 (KB-V1 cells [4]; Homo sapiens, KB-V1, 72 h, read-out: IC50 KB-V1 (+), presence of vinblastine (1 μg/ml), 72 hours): 0.79 µM | IC50 (KB-V1 cells [4]; Homo sapiens, KB-V1, 72 h, read-out: IC50 KB-V1 (−), absence of vinblastine, 72 hours): > 44 µM | IC50 (KB-V1 cells [4]; read-out: IC50 KB-V1 (−), absence of vinblastine, 72 hours): 44 µM | IC50 (KB-8-5 cells [5]): > 44 µM | IC50 (CEM/VLB100 cells; CEM/VLB100, 48 h, read-out: IC50 Modulator only): > 15 µM | IC50 (CEM/VLB100 cells; CEM/VLB100, read-out: IC50 (Modulator + Daunorubicin)): 0.5 µM | IC50 (CEM/VLB100 cells; CEM/VLB100, read-out: IC50 (Modulator + Vinblastine)): 0.025 µM | inhibition of cell growth when used in combination with vinblastine (KB-V1 cells [6]; KB-V1 or KB-8-5 cells in hollow fibers implanted into NCr nu/nu mice): less effective | Calculated inhibition (vinblastine + reversing agent as single agents), KB-V1, i.p. site (KB-V1 cells [6]; [10]): 7.4% and 6.2% | Calculated inhibition (vinblastine + reversing agent as single agents), KB-V1, s.c. site (KB-V1 cells [6]; [10]): 3.8% and 10.8% | Observed inhibition from coadministration with vinblastine, KB-V1, s.c. site (KB-V1 cells [6]; vinblastine 250 μg/kg + reversing agent 0.136 mmol/kg): 7.8 (P = 0.73) % and 13.6 (P = 0.098) % | Observed inhibition from coadministration with vinblastine, KB-V1, i.p. site (KB-V1 cells [6]; vinblastine 250 μg/kg + reversing agent 0.136 mmol/kg, i.p. injection once daily days 3–6): 60.3 (P < 0.0001) % and 56.6 (P < 0.0001) % | Calculated inhibition (vinblastine + reversing agent as single agents), KB-8-5, i.p. site (KB-8-5 cells [7]; [10]): 5.9% | Calculated inhibition (vinblastine + reversing agent as single agents), KB-8-5, s.c. site (KB-8-5 cells [7]; [10]): 3.7% | Observed inhibition from coadministration with vinblastine, KB-8-5, i.p. site (KB-8-5 cells [7]; [11]): 52 (P < 0.0001) % | Observed inhibition from coadministration with vinblastine, KB-8-5, s.c. site (KB-8-5 cells [7]; [11]): 11.7 (P = 0.06) % | Growth inhibition, single agent, KB-8-5, s.c. site (KB-8-5 cells [7]; vinblastine 100 μg/kg, reversing agents 0.136 mmol/kg): 1.4% | Growth inhibition, single agent, KB-8-5, i.p. site (KB-8-5 cells [7]; vinblastine 100 μg/kg, reversing agents 0.136 mmol/kg, i.p. injection once daily days 3–6): 4.7%

COc1cccc2c1C(=O)c1c(O)c3c(c(O)c1C2=O)C[C@@](O)(C(C)=O)C[C@@H]3O[C@H]1C[C@H](N)[C@H](O)[C@H](C)O1 [daunorubicin, reference compound]
IC50 (CEM/VLB100 cells; CEM/VLB100 cells, read-out: IC50 value of the cytotoxic drug in the absence of modulator): 1 µM

COc1cccc2c1C(=O)c1c(O)c3c(c(O)c1C2=O)C[C@@](O)(C(=O)CO)C[C@@H]3O[C@H]1C[C@H](N)[C@H](O)[C@H](C)O1 [adriamycin, reference compound]
IC50 [8]: 0.008 µM | IC50 [9]: 2.2 µM
